8 molecules from ChEMBL document CHEMBL2375305, “Synthesis of novel triterpene and N-allylated/N-alkylated niacin hybrids as α-glucosidase inhibitors” (Eur J Med Chem, 2013) can be followed below.

For experiment [1], the species on record is Homo sapiens. In words: (§1) Inhibition of alpha-glucosidase (unknown origin) using PNPG as substrate incubated for 10 mins prior to substrate addition measured every 30 secs for 5 mins relative to control.
The species entered for experiment [2] is Homo sapiens. The experiment in a line: Binding affinity to alpha-glucosidase (unknown origin) assessed as loss in secondary structure at 50 to 250 uM measured every 1 sec for 1 to 2 mins by CD spectroscopic analysis.
The species entered for experiment [3] is Homo sapiens. The experiment in a line: Non-competitive inhibition of alpha-glucosidase (unknown origin) using PNPG as substrate at 2 to 6 uM by Lineweaver-Burk plot analysis.
Experiment [4] in a line: as §1. Also noted: species or system Homo sapiens.
Another experiment relates to Rattus norvegicus. The experiment in a line: Antihyperglycemic activity in sucrose-loaded STZ-induced diabetic rat model assessed as reduction in blood glucose level at 100 mg/kg, po administered 30 mins followed by sucrose administration measured after 5 hrs relative to vehicle-treated control. It counts as functional. On the set-up: scale not given: the % may be the effect or the level left.

The species entered for experiment [5] is Homo sapiens. In words: Ratio of compound activity to acarbose activity for inhibition of alpha-glucosidase (unknown origin).
The species entered for experiment [6] is Homo sapiens. In words: Inhibition of alpha-glucosidase (unknown origin) using PNPG as substrate at 100 uM incubated for 10 mins prior to substrate addition measured every 30 secs for 5 mins relative to control.

As a reminder, the inhibition is the change of the read-out against control, counted positive when it falls. Usually IC50 stands for the concentration that inhibits the measured activity by half.

Activity calls are given as the source filed them. The calls are words filed in the database; no cut-off is given here.

Take `CCCCCCCCCCCCCCCC[n+]1cccc(C(=O)O[C@H]2CC[C@]3(C)[C@H]4CC=C5[C@@H]6[C@@H](C)[C@H](C)CC[C@]6(C)CC[C@@]5(C)[C@]4(C)CC[C@H]3C2(C)C)c1`: the inhibition result in the experiment filed under Homo sapiens [1] is “Dose-dependent effect”.
`CC(C)=CC[n+]1cccc(C(=O)O[C@H]2CC[C@]3(C)[C@H]4CC=C5[C@@H]6[C@@H](C)[C@H](C)CC[C@]6(C)CC[C@@]5(C)[C@]4(C)CC[C@H]3C2(C)C)c1.[Br-]`: in the experiment listed under Homo sapiens [2], the outcome was Active. Moreover, in the experiment filed under Homo sapiens [3], the inhibition entry is “Active”. Further, the inhibition entry in the experiment listed under Homo sapiens [1] is “Dose-dependent effect”. This molecule came in with an IC50 in experiment [4] of 5 µM. For the same molecule, the Activity in the experiment with Rattus norvegicus is recorded as 19.9%. Besides, the Ratio in the experiment listed under Homo sapiens [5] was determined as 10.
In the case of `C=C(C)[C@@H]1CC[C@]2(C)CC[C@]3(C)[C@@H](CC[C@@H]4[C@@]5(C)CC[C@H](OC(=O)c6ccc[n+](CCCCCCCCCCCCCCCC)c6)C(C)(C)[C@@H]5CC[C@]43C)[C@H]12`, the inhibition in the experiment listed under Homo sapiens [6] came out at 4.5%.
Still for that read-out and setting: in the case of `C=C(C)[C@@H]1CCC2(C)CC[C@]3(C)[C@@H](CC[C@@H]4[C@@]5(C)CC[C@H](OC(=O)c6ccc[n+](CCCCCCCCCCCC)c6)C(C)(C)[C@@H]5CC[C@]43C)[C@H]12` (single isomer, unassigned) it was 8.8%.
With `CCCCCCCCCCCC[n+]1cccc(C(=O)O[C@H]2CC[C@]3(C)[C@H]4CC=C5[C@@H]6[C@@H](C)[C@H](C)CC[C@]6(C)CC[C@@]5(C)[C@]4(C)CC[C@H]3C2(C)C)c1`, the inhibition entry in the experiment filed under Homo sapiens [1] was “Dose-dependent effect”.
With `C=C(C)[C@@H]1CC[C@]2(C)CC[C@]3(C)[C@@H](CC[C@@H]4[C@@]5(C)CC[C@H](OC(=O)c6ccc[n+](C/C=C(\C)CCC=C(C)C)c6)C(C)(C)[C@@H]5CC[C@]43C)[C@H]12`, in the experiment listed under Homo sapiens [6], the inhibition is 3.8%.
Turning to `CCCCCCCCCCCCC[n+]1cccc(C(=O)O[C@H]2CC[C@]3(C)[C@H]4CC=C5[C@@H]6[C@@H](C)[C@H](C)CC[C@]6(C)CC[C@@]5(C)[C@]4(C)CC[C@H]3C2(C)C)c1`, the inhibition entry in the experiment listed under Homo sapiens [1] is “Dose-dependent effect”.
For `C=C(C)[C@@H]1CC[C@]2(C)CC[C@]3(C)[C@@H](CC[C@@H]4[C@@]5(C)CC[C@H](OC(=O)c6ccc[n+](CC=C(C)C)c6)C(C)(C)[C@@H]5CC[C@]43C)[C@H]12`, the inhibition in the experiment listed under Homo sapiens [6] was -4.4%.
